Experimental data: ChEMBL document CHEMBL1123377, “Potent antagonists of vasopressin antidiuretic activity that lack the beta,beta-cyclopentamethylene-beta-mercaptopropionic acid substitution at position 1” (J Med Chem, 1986)
Active and inactive are the calls of the source. The calls are words filed in the database; no cut-off is given here.

Experiments:
[1] = molecular target: Vasopressin V2 receptor (Sus scrofa) (UniProt P32307); test: Compound was tested for binding affinity against V2 vasopressin receptor in pig renal medullary membrane preparations using tritiated LVP.; assay type: cell membranes; details: Renal medulla
Sus scrofa = species: Sus scrofa; test: Compound was tested for adenylate cyclase activation in pig renal medullary membrane preparations.; assay type: functional; details: Renal medulla
Rattus norvegicus [2] = test: Compound was tested in vivo to lower urine osmolality to 300 mOsm/kg in hydropenic rat preparation; na=No activity; assay type: functional, organism-based
Vasopressin V2 receptor [3] = molecular target: T1, Vasopressin V2 receptor (Sus scrofa, UniProt P32307); test: Compound was tested for inhibition against V2 vasopressin receptor in pig renal medullary membrane preparations; e=Partial agonist with a relative Vmax of 14%.; assay type: functional, cell membranes, Renal medulla
Vasopressin V2 receptor [4] = molecular target: T1, Vasopressin V2 receptor; test: Compound was tested for inhibition against V2 vasopressin receptor in pig renal medullary membrane preparations.; assay type: cell membranes, Renal medulla
Rattus norvegicus [5] = test: Compound was tested in vivo to lower urine osmolality to 300 mOsm/kg in hydropenic rat preparation.; assay type: functional

Sequence of Vasopressin V2 receptor (Sus scrofa) (P32307 whole entry): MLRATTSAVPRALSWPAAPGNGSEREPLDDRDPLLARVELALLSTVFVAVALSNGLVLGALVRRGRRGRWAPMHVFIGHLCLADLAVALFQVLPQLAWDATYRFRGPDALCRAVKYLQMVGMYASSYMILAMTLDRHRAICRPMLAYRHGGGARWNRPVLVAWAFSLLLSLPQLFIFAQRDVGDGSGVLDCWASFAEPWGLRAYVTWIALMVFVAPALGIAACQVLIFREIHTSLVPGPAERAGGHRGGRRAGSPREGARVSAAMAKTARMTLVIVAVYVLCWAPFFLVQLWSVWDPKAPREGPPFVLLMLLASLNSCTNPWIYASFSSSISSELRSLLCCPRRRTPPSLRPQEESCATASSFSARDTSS
T1 sequence (P32307 whole entry): as above

Row | Compound | K bind [1] [nM] | ED300 (Rattus norvegicus [5]) [µg/kg] | further results
1 | CCOc1ccc(C[C@H]2NC(=O)CC(CC)(CC)SSC[C@H](C(=O)N3CCC[C@H]3C(=O)N[C@H](CCCN=C(N)N)C(N)=O)NC(=O)[C@@H](CC(N)=O)NC(=O)[C@H](C(C)C)NC(=O)[C@@H](Cc3ccccc3)NC2=O)cc1 | 30 |  | 
2 | CCOc1ccc(C[C@H]2NC(=O)CC(C)(C)SSC[C@H](C(=O)N3CCC[C@H]3C(=O)N[C@H](CCCN=C(N)N)C(=O)NCC(N)=O)NC(=O)[C@@H](CC(N)=O)NC(=O)[C@H](C(C)C)NC(=O)[C@@H](Cc3ccccc3)NC2=O)cc1 | 39 |  | K act (Sus scrofa): 79 nM; ED300 (Rattus norvegicus [2]): inactive; Ki (Vasopressin V2 receptor [3]): Partial agonist
3 | CCOc1ccc(C[C@H]2NC(=O)CC(CC)(CC)SSC[C@H](C(=O)N3CCC[C@H]3C(=O)N[C@H](CCCN=C(N)N)C(=O)NCC(N)=O)NC(=O)[C@@H](CC(N)=O)NC(=O)[C@H](C(C)C)NC(=O)[C@@H](Cc3ccccc3)NC2=O)cc1 | 35 |  | 
4 | CCOc1ccc(C[C@H]2NC(=O)CC(CC)(CC)SSC[C@@H](C(=O)N3CCC[C@H]3C(=O)N[C@@H](CCCN=C(N)N)C(=O)NCC(N)=O)NC(=O)[C@H](CC(N)=O)NC(=O)[C@H](C(C)C)NC(=O)[C@H](Cc3ccccc3)NC2=O)cc1 [listing 1 of 2 here] |  |  | Ki (Vasopressin V2 receptor [4]): 5.3 nM
5 | CCOc1ccc(C[C@H]2NC(=O)CC(CC)(CC)SSC[C@@H](C(=O)N3CCC[C@H]3C(=O)N[C@@H](CCCNC(=N)N)C(N)=O)NC(=O)[C@H](CC(N)=O)NC(=O)[C@H](C(C)C)NC(=O)[C@H](Cc3ccccc3)NC2=O)cc1 |  |  | Ki (Vasopressin V2 receptor [4]): 8.9 nM
6 | CCOc1ccc(C[C@H]2NC(=O)CC3(CCCCC3)SSC[C@H](C(=O)N3CCC[C@H]3C(=O)N[C@H](CCCN=C(N)N)C(=O)NCC(N)=O)NC(=O)[C@@H](CC(N)=O)NC(=O)[C@H](C(C)C)NC(=O)[C@@H](Cc3ccccc3)NC2=O)cc1 | 12 |  | 
7 | CCOc1ccc(C[C@@H]2NC(=O)CC(CC)(CC)SSC[C@H](C(=O)N3CCC[C@H]3C(=O)N[C@H](CCCN=C(N)N)C(N)=O)NC(=O)[C@@H](CC(N)=O)NC(=O)[C@H](C(C)C)NC(=O)[C@@H](Cc3ccccc3)NC2=O)cc1 | 450 | 120 | 
8 | CCOc1ccc(C[C@@H]2NC(=O)CC3(CCCCC3)SSC[C@H](C(=O)N3CCC[C@H]3C(=O)N[C@H](CCCN=C(N)N)C(N)=O)NC(=O)[C@@H](CC(N)=O)NC(=O)[C@H](C(C)C)NC(=O)[C@@H](Cc3ccccc3)NC2=O)cc1 | 280 | 300 | 
9 | CCOc1ccc(C[C@H]2NC(=O)CC3(CCCCC3)SSC[C@@H](C(=O)N3CCC[C@H]3C(=O)N[C@@H](CCCN=C(N)N)C(=O)NCC(N)=O)NC(=O)[C@H](CC(N)=O)NC(=O)[C@H](C(C)C)NC(=O)[C@H](Cc3ccccc3)NC2=O)cc1 |  | 11 | 
10 | CCOc1ccc(C[C@H]2NC(=O)CC(CC)(CC)SSC[C@@H](C(=O)N3CCC[C@H]3C(=O)N[C@@H](CCCN=C(N)N)C(=O)NCC(N)=O)NC(=O)[C@H](CC(N)=O)NC(=O)[C@H](C(C)C)NC(=O)[C@H](Cc3ccccc3)NC2=O)cc1 [listing 2 of 2 here] |  | 23 | 
11 | CCOc1ccc(C[C@H]2NC(=O)CC3(CCCCC3)SSC[C@H](C(=O)N3CCC[C@H]3C(=O)N[C@H](CCCN=C(N)N)C(N)=O)NC(=O)[C@@H](CC(N)=O)NC(=O)[C@H](C(C)C)NC(=O)[C@@H](Cc3ccccc3)NC2=O)cc1 | 12 | 10 | 
12 | CCOc1ccc(C[C@H]2NC(=O)CC(CC)(CC)SSC[C@@H](C(=O)N3CCC[C@H]3C(=O)N[C@@H](CCCN=C(N)N)C(N)=O)NC(=O)[C@H](CC(N)=O)NC(=O)[C@H](C(C)C)NC(=O)[C@H](Cc3ccccc3)NC2=O)cc1 |  | 12 | 
